Key:
Assay in all cases: KinaseProfiler off-target kinase profiling
Format in all cases: biochemical
Conditions in all cases: 10 μM, ATP near Km
IRR = IRR (Homo sapiens (Human), UniProt P14616)
Experimental: (§1) Representative compounds (Examples 12, 32, 26 and 2) of the invention were tested for off-target kinase activity at a concentration of 10 μM by Millipore, Inc. in their KinaseProfiler™ service against all the kinases available in their full kinase panel. Compounds were run in duplicate at a concentration of ATP near the Km for each individual kinase according to Millipore's specifications. The results are shown in Table B. Data are reported as percent of control (POC) and are the average of the two replicates.

FGFR1 = FGFR1 (Homo sapiens (Human), UniProt P11362)
Experimental: as §1

PKCepsilon = PKCepsilon (Homo sapiens (Human), UniProt Q02156)
Experimental: as §1

Flt4 = Flt4 (Homo sapiens (Human), UniProt P35916)
Sequence of Flt4 (P35916 25-1363): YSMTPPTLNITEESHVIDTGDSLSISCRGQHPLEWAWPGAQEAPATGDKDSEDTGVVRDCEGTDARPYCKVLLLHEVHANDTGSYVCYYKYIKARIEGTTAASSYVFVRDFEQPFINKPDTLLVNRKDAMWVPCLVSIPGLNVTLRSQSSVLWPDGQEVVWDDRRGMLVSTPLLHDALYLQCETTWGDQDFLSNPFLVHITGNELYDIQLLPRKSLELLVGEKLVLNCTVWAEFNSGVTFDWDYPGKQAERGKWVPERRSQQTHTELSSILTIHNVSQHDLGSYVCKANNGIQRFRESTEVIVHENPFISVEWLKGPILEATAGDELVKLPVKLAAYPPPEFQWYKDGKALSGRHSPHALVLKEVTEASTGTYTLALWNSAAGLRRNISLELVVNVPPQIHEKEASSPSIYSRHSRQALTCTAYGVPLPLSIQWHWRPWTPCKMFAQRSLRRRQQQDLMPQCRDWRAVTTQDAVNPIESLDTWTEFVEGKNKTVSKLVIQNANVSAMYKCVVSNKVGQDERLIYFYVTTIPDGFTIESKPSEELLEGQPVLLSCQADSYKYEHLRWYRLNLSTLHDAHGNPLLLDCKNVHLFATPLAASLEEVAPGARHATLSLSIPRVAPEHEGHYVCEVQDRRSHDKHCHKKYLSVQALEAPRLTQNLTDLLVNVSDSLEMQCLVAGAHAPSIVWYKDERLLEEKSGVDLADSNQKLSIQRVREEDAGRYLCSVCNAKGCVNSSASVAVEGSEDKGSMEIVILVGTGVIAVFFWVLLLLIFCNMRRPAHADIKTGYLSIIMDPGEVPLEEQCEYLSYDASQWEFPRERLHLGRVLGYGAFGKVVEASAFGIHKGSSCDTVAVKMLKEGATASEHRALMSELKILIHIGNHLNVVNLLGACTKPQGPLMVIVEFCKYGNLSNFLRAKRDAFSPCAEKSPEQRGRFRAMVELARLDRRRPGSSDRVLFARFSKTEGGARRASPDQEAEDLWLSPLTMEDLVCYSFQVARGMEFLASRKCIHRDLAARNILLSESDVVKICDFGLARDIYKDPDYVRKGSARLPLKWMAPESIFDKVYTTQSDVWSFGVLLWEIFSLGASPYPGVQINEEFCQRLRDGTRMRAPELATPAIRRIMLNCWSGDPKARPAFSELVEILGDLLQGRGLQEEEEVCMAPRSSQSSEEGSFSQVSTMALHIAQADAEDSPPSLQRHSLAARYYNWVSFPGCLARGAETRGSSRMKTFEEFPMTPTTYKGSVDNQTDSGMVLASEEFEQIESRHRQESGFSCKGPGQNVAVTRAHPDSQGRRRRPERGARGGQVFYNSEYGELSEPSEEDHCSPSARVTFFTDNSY
Experimental: as §1

MEK1 = MEK1 (Homo sapiens (Human), UniProt Q02750)
Experimental: as §1

p38beta = p38beta (Homo sapiens (Human), UniProt Q15759)
Sequence of p38beta (Q15759 whole entry): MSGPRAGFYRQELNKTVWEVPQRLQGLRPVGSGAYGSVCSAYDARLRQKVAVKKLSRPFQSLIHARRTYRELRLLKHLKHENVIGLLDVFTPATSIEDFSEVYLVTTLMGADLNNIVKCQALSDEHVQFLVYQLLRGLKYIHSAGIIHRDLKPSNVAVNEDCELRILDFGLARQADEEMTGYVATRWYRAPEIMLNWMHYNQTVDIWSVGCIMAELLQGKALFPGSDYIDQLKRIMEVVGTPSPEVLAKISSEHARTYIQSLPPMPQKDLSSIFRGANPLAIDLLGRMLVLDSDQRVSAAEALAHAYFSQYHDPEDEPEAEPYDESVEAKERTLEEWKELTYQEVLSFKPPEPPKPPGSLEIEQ
Experimental: as §1

Pim-3 = Pim-3 (Homo sapiens (Human), UniProt Q86V86)
Experimental: as §1

p38gamma = p38gamma (Homo sapiens (Human), UniProt P53778)
Experimental: as §1

CK1delta = CK1delta (Homo sapiens (Human), UniProt P48730)
Experimental: as §1

MAPKAP-K3 = MAPKAP-K3 (Homo sapiens (Human), UniProt Q16644)
Sequence of MAPKAP-K3 (Q16644 whole entry): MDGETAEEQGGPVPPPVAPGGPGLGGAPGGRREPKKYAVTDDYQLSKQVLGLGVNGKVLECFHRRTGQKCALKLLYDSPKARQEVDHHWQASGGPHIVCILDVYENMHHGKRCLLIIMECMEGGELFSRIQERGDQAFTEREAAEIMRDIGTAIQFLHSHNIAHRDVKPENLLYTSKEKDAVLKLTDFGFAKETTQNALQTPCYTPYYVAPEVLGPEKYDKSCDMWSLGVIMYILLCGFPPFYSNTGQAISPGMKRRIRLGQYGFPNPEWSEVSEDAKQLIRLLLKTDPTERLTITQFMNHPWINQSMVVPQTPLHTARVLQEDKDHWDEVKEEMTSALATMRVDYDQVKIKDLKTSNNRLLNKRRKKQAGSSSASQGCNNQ
Experimental: as §1

CLK3 = CLK3 (Homo sapiens (Human), UniProt P49761)
Experimental: as §1

MKK4_m = MKK4_m (Mus musculus (Mouse), UniProt P47809)
Sequence of MKK4_m (P47809 whole entry): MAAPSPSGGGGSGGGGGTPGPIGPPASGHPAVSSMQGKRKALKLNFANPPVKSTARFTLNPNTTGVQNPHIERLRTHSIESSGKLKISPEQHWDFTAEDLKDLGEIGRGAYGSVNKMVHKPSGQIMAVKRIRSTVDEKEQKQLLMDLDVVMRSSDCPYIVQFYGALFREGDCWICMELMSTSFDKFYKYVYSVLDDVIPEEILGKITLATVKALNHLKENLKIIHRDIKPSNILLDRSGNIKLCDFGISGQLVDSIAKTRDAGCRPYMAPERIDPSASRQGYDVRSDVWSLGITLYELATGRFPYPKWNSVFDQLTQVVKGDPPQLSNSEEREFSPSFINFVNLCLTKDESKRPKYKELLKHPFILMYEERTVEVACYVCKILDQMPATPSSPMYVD
Experimental: as §1

PTK5 = PTK5 (Homo sapiens (Human), UniProt P42685)
Experimental: as §1

RIPK2 = RIPK2 (Homo sapiens (Human), UniProt O43353)
Sequence of RIPK2 (O43353 whole entry): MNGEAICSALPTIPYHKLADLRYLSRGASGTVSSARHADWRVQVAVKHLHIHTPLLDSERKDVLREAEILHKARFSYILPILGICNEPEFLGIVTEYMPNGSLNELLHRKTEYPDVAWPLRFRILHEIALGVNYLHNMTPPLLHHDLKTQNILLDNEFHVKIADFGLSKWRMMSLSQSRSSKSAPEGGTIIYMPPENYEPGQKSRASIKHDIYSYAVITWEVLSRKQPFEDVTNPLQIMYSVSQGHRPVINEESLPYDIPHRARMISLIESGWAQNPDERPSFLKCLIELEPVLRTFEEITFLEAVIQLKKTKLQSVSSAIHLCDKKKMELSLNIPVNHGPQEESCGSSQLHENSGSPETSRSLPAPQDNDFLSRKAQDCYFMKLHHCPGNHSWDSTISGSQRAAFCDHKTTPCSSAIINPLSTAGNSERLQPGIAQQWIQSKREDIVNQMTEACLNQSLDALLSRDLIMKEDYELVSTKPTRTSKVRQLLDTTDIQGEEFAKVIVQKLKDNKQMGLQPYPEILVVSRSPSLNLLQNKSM
Experimental: as §1

EGFR = EGFR (Homo sapiens (Human), UniProt P00533)
Experimental: as §1

PAK6 = PAK6 (Homo sapiens (Human), UniProt Q9NQU5)
Experimental: as §1

EphA5 = EphA5 (Homo sapiens (Human), UniProt P54756)
Experimental: as §1

Plk3 = Plk3 (Homo sapiens (Human), UniProt Q9H4B4)
Experimental: as §1

CDK5/p35 = CDK5/p35 (Homo sapiens (Human), UniProt Q00535)
Sequence of CDK5/p35 (Q00535 whole entry): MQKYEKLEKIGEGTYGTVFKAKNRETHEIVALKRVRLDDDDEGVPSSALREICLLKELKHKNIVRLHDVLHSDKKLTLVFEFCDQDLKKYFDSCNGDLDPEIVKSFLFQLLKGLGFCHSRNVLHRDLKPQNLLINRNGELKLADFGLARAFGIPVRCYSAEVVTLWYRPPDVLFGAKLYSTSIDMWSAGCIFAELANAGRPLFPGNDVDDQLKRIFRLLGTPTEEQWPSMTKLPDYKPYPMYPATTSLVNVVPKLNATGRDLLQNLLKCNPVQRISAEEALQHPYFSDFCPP
Sequence of CDK5/p35 (Q15078 2-307 partner): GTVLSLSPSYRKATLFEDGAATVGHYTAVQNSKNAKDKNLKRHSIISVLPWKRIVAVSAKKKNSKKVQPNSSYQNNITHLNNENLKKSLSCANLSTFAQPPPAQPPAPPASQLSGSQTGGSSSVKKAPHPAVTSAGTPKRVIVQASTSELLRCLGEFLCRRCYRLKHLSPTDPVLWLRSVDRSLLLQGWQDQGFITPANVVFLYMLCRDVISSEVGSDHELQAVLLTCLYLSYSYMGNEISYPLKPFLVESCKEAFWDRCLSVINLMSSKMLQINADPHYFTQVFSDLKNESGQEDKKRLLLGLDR
Experimental: as §1

WNK2 = WNK2 (Homo sapiens (Human), UniProt Q9Y3S1)
Experimental: as §1

AKT2 = AKT2 (Homo sapiens (Human), UniProt P31751)
Experimental: as §1

p70S6K = p70S6K (Homo sapiens (Human), UniProt P23443)
Experimental: as §1

TLK2 = TLK2 (Homo sapiens (Human), UniProt Q86UE8)
Experimental: as §1

HIPK2 = HIPK2 (Homo sapiens (Human), UniProt Q9H2X6)
Experimental: as §1

Yes = Yes (Homo sapiens (Human), UniProt P07947)
Experimental: as §1

MKK7beta = MKK7beta (Homo sapiens (Human), UniProt O14733)
Experimental: as §1

MAP4K2 = MAP4K2 (Homo sapiens (Human), UniProt Q12851)
Experimental: as §1

CDK2/cyclinA = CDK2/cyclinA (Homo sapiens (Human), UniProt P24941)
Experimental: as §1

Bmx = Bmx (Homo sapiens (Human), UniProt P51813)
Experimental: as §1

Met = Met (Homo sapiens (Human), UniProt P08581)
Experimental: as §1

MST1 = MST1 (Homo sapiens (Human), UniProt Q13043)
Sequence of MST1 (Q13043 whole entry): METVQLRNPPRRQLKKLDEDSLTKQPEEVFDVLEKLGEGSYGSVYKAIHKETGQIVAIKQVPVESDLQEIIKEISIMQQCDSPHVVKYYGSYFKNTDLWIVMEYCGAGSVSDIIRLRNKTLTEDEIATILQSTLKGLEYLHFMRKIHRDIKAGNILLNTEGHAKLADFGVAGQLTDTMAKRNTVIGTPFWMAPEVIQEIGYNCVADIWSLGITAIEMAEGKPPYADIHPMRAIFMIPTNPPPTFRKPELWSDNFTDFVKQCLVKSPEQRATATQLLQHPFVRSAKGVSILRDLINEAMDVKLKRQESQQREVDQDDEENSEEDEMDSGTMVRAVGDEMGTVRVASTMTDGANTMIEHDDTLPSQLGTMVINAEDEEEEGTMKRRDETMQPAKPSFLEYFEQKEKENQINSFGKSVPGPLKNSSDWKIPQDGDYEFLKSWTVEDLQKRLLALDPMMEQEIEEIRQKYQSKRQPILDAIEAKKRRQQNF
Experimental: as §1

ROCK-I = ROCK-I (Homo sapiens (Human), UniProt Q13464)
Experimental: as §1

SRPK2 = SRPK2 (Homo sapiens (Human), UniProt P78362)
Sequence of SRPK2 (P78362 whole entry): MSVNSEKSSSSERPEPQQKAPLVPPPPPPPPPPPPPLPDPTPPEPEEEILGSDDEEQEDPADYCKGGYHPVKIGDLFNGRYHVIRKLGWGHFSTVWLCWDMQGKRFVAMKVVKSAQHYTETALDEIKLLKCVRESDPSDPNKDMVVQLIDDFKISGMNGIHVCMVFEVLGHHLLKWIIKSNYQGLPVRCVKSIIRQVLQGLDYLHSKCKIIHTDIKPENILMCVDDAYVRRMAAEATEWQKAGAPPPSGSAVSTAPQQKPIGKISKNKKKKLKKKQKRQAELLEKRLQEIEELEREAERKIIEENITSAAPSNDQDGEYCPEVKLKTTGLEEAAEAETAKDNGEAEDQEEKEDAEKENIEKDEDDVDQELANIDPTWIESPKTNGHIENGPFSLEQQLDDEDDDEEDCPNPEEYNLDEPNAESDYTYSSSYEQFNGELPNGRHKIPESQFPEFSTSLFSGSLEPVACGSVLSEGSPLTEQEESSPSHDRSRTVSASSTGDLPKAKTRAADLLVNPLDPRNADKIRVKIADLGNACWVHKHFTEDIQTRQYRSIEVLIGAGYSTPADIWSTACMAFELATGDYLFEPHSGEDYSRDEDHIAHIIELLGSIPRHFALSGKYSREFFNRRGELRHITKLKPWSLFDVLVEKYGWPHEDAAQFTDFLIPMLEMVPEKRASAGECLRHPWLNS
Experimental: as §1

mTOR/FKBP12 = mTOR/FKBP12 (Homo sapiens (Human), UniProt P42345)
Experimental: as §1

FGFR3 = FGFR3 (Homo sapiens (Human), UniProt P22607)
Experimental: as §1

NEK11 = NEK11 (Homo sapiens (Human), UniProt Q8NG66)
Experimental: as §1

eEF-2K = eEF-2K (Homo sapiens (Human), UniProt O00418)
Experimental: as §1

Flt1 = Flt1 (Homo sapiens (Human), UniProt P17948)
Experimental: as §1

CAMK1 = CAMK1 (Homo sapiens (Human), UniProt Q14012)
Experimental: as §1

Row | SMILES | Avg. POC (IRR) [POC] | Avg. POC (FGFR1) [POC] | Avg. POC (PKCepsilon) [POC] | Avg. POC (Flt4) [POC] | Avg. POC (MEK1) [POC] | Avg. POC (p38beta) [POC] | Avg. POC (Pim-3) [POC] | Avg. POC (p38gamma) [POC] | Avg. POC (CK1delta) [POC] | Avg. POC (MAPKAP-K3) [POC] | Avg. POC (CLK3) [POC] | Avg. POC (MKK4_m) [POC] | Avg. POC (PTK5) [POC] | Avg. POC (RIPK2) [POC] | Avg. POC (EGFR) [POC] | Avg. POC (PAK6) [POC] | Avg. POC (EphA5) [POC] | Avg. POC (Plk3) [POC] | Avg. POC (CDK5/p35) [POC] | Avg. POC (WNK2) [POC] | other results
1 | Cc1c(-c2cnn(C)c2)nn(-c2ccccc2)c1NC(=O)N[C@H]1CCCc2ccccc21 [Example 2, (S)-1-(1′,4-dimethyl-1-phenyl-1H,1′H-3,4′-bipyrazol-5-yl)-3-(1,2,3,4-tetrahydronaphthalen-1-yl)urea] | 2.5 | 114 | 101.5 | 99 | 100.5 | 113 | 98 | 115 | 117.5 | 128 | 108 | 102.5 | 122 | 108 | 114 | 119.5 | 119 | 103 | 124 | 99 | Avg. POC (AKT2): 132 POC; Avg. POC (p70S6K): 172 POC; Avg. POC (TLK2): 100 POC; Avg. POC (HIPK2): 97 POC; Avg. POC (Yes): 132.5 POC; Avg. POC (MKK7beta): 129.5 POC; Avg. POC (MAP4K2): 110 POC; Avg. POC (CDK2/cyclinA): 127 POC; Avg. POC (Bmx): 113 POC; Avg. POC (Met): 148.5 POC; Avg. POC (MST1): 111.5 POC; Avg. POC (ROCK-I): 116.5 POC; Avg. POC (SRPK2): 106 POC; Avg. POC (mTOR/FKBP12): 105 POC; Avg. POC (FGFR3): 113.5 POC; Avg. POC (NEK11): 108.5 POC; Avg. POC (eEF-2K): 138 POC; Avg. POC (Flt1): 105.5 POC; Avg. POC (CAMK1): 109.5 POC
2 | Cc1c(-c2cnn(C)c2)nn(-c2ccccc2)c1NC(=O)NC1CCOc2cc(F)ccc21 (stereo not drawn) [Example 12, 1-(1′,4-dimethyl-1-phenyl-1H,1′H-[3,4′-bipyrazol]-5-yl)-3-(7-fluorochroman-4-yl)urea] | 91 | 90 | 97.5 | 83.5 | 106.5 | 115.5 | 100.5 | 111 | 109.5 | 112 | 100 | 144.5 | 100 | 99 | 109.5 | 139 | 118.5 | 115 | 106.5 | 106.5 | Avg. POC (AKT2): 127 POC; Avg. POC (p70S6K): 124.5 POC; Avg. POC (TLK2): 98 POC; Avg. POC (HIPK2): 91.5 POC; Avg. POC (Yes): 119.5 POC; Avg. POC (MKK7beta): 122.5 POC; Avg. POC (MAP4K2): 107.5 POC; Avg. POC (CDK2/cyclinA): 112 POC; Avg. POC (Bmx): 115.5 POC; Avg. POC (Met): 109 POC; Avg. POC (MST1): 92 POC; Avg. POC (ROCK-I): 116.5 POC; Avg. POC (SRPK2): 101.5 POC; Avg. POC (mTOR/FKBP12): 105.5 POC; Avg. POC (FGFR3): 109 POC; Avg. POC (NEK11): 84.5 POC; Avg. POC (eEF-2K): 140 POC; Avg. POC (Flt1): 93 POC; Avg. POC (CAMK1): 102 POC
3 | Cc1c(-c2ccc(=O)n(C)c2)nn(-c2ccccc2)c1NC(=O)NC1CN(CC(F)(F)F)Cc2ccccc21 (stereo not drawn) [Example 26, 1-(4-methyl-3-(1-methyl-6-oxo-1,6-dihydropyridin-3-yl)-1-phenyl-1H-pyrazol-5-yl)-3-(2-(2,2,2-trifluoroethyl)-1,2,3,4-tetrahydroisoquinolin-4-yl)urea] | 89 | 104.5 | 106.5 | 106 | 97 | 115.5 | 98 | 118 | 121.5 | 108.5 | 106 | 99.5 | 110 | 98 | 108 | 116.5 | 106.5 | 119 | 110.5 | 108 | Avg. POC (AKT2): 130 POC; Avg. POC (p70S6K): 116 POC; Avg. POC (TLK2): 97 POC; Avg. POC (HIPK2): 103 POC; Avg. POC (Yes): 117.5 POC; Avg. POC (MKK7beta): 144.5 POC; Avg. POC (MAP4K2): 121 POC; Avg. POC (CDK2/cyclinA): 114.5 POC; Avg. POC (Bmx): 109.5 POC; Avg. POC (Met): 81 POC; Avg. POC (MST1): 102 POC; Avg. POC (ROCK-I): 112 POC; Avg. POC (SRPK2): 106 POC; Avg. POC (mTOR/FKBP12): 107.5 POC; Avg. POC (FGFR3): 101 POC; Avg. POC (NEK11): 113.5 POC; Avg. POC (eEF-2K): 127.5 POC; Avg. POC (Flt1): 104 POC; Avg. POC (CAMK1): 106 POC
